Article PMC3977574, “Structural Basis of Mos1 Transposase Inhibition by the Anti-retroviral Drug Raltegravir” (ACS Chemical Biology, 2014)

Molecular target: T1, Mos1 transposase (Drosophila mauritiana, UniProt Q7JQ07, T216A)
T1 construct: gene mariner\T; Mos1 transposase catalytic domain (crystal); Mos1 transposase and paired-end complex (thermal denaturation and activity assays)
Assay: X-ray co-crystal structures at […] Å (soak); thermal denaturation shift; strand transfer assay IC50 […]; plasmid cleavage assay IC50 […]
Type: biochemical

T1 sequence (Q7JQ07 whole entry T216A, the tested form may be a part): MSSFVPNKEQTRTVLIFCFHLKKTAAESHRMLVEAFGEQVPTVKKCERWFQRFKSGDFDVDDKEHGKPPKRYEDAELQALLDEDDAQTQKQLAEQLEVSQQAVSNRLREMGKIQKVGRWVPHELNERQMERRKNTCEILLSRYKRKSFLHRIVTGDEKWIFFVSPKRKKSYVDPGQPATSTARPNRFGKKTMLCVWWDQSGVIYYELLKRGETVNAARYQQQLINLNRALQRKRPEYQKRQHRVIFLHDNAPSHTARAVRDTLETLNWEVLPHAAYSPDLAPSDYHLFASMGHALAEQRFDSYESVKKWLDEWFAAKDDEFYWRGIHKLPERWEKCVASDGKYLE

Which IC50 does the source give for `Cc1nnc(C(=O)NC(C)(C)c2nc(C(=O)NCc3ccc(F)cc3)c(O)c(=O)n2C)o1` [Raltegravir] here?
The IC50 was about 2000 nM.
